In patent publication US20160199463A1, “HDAC2 DEFENDS VASCULAR ENDOTHELIUM FROM INJURY” (The Johns Hopkins University, priority 2014, published 2016):

Columns and labels:
[1] = system: aortic rings of wild-type mice; experiment: Force tension (wire) myography, vascular relaxation of isolated wild-type mouse aortic rings; assay type: cell-based
Method: (§1) Mouse aorta was isolated and cleaned in ice-cold Krebs-Ringer-bicarbonate solution containing the following (in mM): 118.3 NaCl, 4.7 KCl, 1.6 CaCl2, 1.2 KH2 PO4, 25 NaHCO3, 1.2 MgSO4, and 11.1 dextrose. The aorta was immersed in a bath filled with constantly oxygenated Krebs buffer at 37° C. Equal size thoracic aortic rings (2 mm) were mounted using a microscope, ensuring no damage to the smooth muscle or endothelium. One end of the aortic rings was connected to a transducer, and the other to a micromanipulator. Aorta was passively stretched to an optimal resting tension using the micromanipulator, after which a dose of 60 mM KCl was administered, and repeated after a wash with Krebs buffer. After these washes, all vessels were allowed to equilibrate for 20-30 min in the presence of indomethacin (3 μM). Phenylephrine (1 μM) was administered to induce vasoconstriction. A dosedependent response (1 nM to 10 μM), with the muscarinic agonist, ACH or nitric oxide donor, SNP, was then performed as necessary. The responses were repeated in the presence of inhibitors. Relaxation responses were calculated as a percentage of tension following pre-constriction. Sigmoidal dose-response curves were fitted to data with the minimum constrained to 0. Two to four rings were isolated from each animal and the number of animals in each group (n) was 6.

[2] = system: arginase activity in HAECs; experiment: Arginase activity assay (urea production) in HAEC lysates; assay type: cell-based, human
Method: HAEC were lysed using RIPA buffer (50 mM of Tris.HCl, pH 7.5, 0.1 mM EDTA, 0.1% Triton X-100, and protease inhibitor), and centrifuged for 30 min at 14,000 g at 4° C. 50 μL (50-100 μg) of supernatant was added to 75 μl of 10 mM MnCl2 made in Tris-HCl (50 mM, pH 7.5) and heat activated by incubating at 55-60° C. for 10 min. 50 μL of L-Arginine that was prepared in 300 mM Tris-HCL, pH 9.7 were then added to the activated cell lysates to achieve final concentrations of 150 mM and incubated at 37° C. for 3 hrs with shaking. The reaction was stopped by adding 400 μL of an acid solution (H2SO4: H3PO4: H20=1:3:7). For colorimetric determination of urea, α-isonitrosopropiophenone (25 μL, 9% in ethanol) was added and further heated at 100° C. for 45 min. Samples were allowed to cool at room temperature in the dark for 10 min and urea concentration was determined by measuring absorbance at 550 nm using a spectrophotometer.

[3] = system: NO production in HAECs; experiment: Nitric oxide production in HAECs (DAF-DA fluorescence, Siever's NO analyzer); assay type: cell-based, human; conditions: TSA 1 μmol/L
Method: (§2) Nitric Oxide levels in HAEC were determined using DAF-DA as per manufacture instructions (Life Sciences). Briefly, cells were loaded with DAF-DA (5 μM) for 20 min and washed 3 times with PBS and incubated for another 30 min in phenol-free media. Fluorescence was determined using a Nikon TE-200 epifluorescence microscope. Images were captured with a Rolera EMC2 camera (Q-Imaging, BC, Canada) with Velocity software (PerkinElmer, Lexington, Mass.). NO production in the cell culture media was also determined by measuring Nitrite levels using a Siever's NO analyzer. NO radicals were measured in cell media collected after 24 hours of treatment using the Oxiselect assay (Cell Biolabs, San Diego, Calif.).

[4] = system: aortic rings from Arg2−/− mice; experiment: Force tension (wire) myography, vascular relaxation of aortic rings from Arg2-/- mice; assay type: cell-based, mouse; conditions: Arg2−/− mice; TSA 200 nmol/L; n=6
Method: as §1

[5] = system: arginase activity in mice aortas; experiment: Arginase activity in isolated segments of mice aorta; assay type: cell-based, mouse; conditions: TSA 200 nmol/L
[6] = system: calcium-insensitive eNOS in HEK 293 cells; experiment: NO radicals in medium of HEK 293 cells expressing calcium-insensitive eNOS (DCFH-DiOxyQ assay); assay type: cell-based, human; conditions: TSA alone
Method: as §2
Next, the functional consequences of HDAC inhibition on downstream endothelial cell signaling were evaluated. Because eNOS-derived NO plays a central role in endothelial function, eNOS activity was assessed by measuring NO production using 3 different assays. […] HEK 293 cells lack native eNOS expression, but do produce abundant Arg2. Cell medium from 293 cells transfected with a control plasmid (LacZ) was used as a control background signal that was subtracted from all the groups containing calcium-insensitive endothelial nitric oxide synthase.

[7] = system: SIRT; conditions: cited from earlier work
[8] = system: human ARG2 promoter; experiment: Human Arg2 promoter assay using luciferase activity in HAECs; assay type: cell-based
Method: Chromosomal DNA was prepared from HAECs using Trizol reagent as per manufacturer's protocol (Life sciences). Promoter fragments of Arg2 were amplified by PCR using specific primer sets as follows.
PI Forward 5′-GGGCTCGAGTGAGGTGAAATAAATTTCAGGAGTTTA-3′ (SEQ ID NO: 24); Reverse 5′-GCCAAGCTTAGCCGGGAGTGAGCGCCACCGCCC-3′ (SEQ ID NO: 25), 1 Kb; PII Forward 5′-GGGCTCGAGATAACCAGCGCTCCCGTTATTCAG-3′ (SEQ ID NO: 26); Reverse 5′-GCCAAGCTTAGCCGGGAGTGAGCGCCACCGCCC-3′ (SEQ ID NO: 27), 0.3 Kb; PIII Forward 5′-GGGCTCGAGGTTCAGGAACCTGGCATGGGCCGG-3′ (SEQ ID NO: 28); Reverse 5′-GCCAAGCTTAGCCGGGAGTGAGCGCCACCGCCC-3′ (SEQ ID NO: 29), 0.65 Kb; PIV Forward 5′-GGGCTCGAGTGAGGTGAAATAAATTTCAGGAGTTTA-3′ (SEQ ID NO: 30); Reverse 5′-GCCAAGCTTCCGGCCCATGCCAGGTTCCTGAAC-3′ (SEQ ID NO: 31), 0.3 kb.
These were cloned into the restriction sites for XhoI and HindIII on the pGL3-enhancer vector (Promega Co.). HAECs were transfected with the plasmids using Fugene 6 reagent (Roche Co.) and luciferase activity was measured by Dual-luciferase reporter assay system (Promega Co.). The luciferase activity was reported as relative luciferase units by dividing firefly luciferase activity by Renilla luciferase activity.

Compound: CC(/C=C/C(=O)NO)=C\[C@@H](C)C(=O)c1ccc(N(C)C)cc1 [TSA, trichostatin A]
- SNP-mediated (endothelium-independent) vasorelaxation versus vehicle-only control ([1]; TSA 200 nmol/L or MGCD0103 1 μmol/L, 18 hours): no significant difference
- Emax acetylcholine-mediated (endothelium-dependent) vasorelaxation ([1]; TSA 200 nmol/L, 18 hours preincubation, n=6): 31.24±7.8%
- HAEC arginase activity, short-term ([2]; 30 minutes, nicotinamide 5 mmol/L, TSA 1 μmol/L): no effect
- total arginase activity ([2]; TSA 400 nmol/L, 18 hours): increased
- NO production [3]: significantly decreased
- Emax endothelial cell-dependent vasorelaxation [4]: 66.3±7.54%
- arginase activity [5]: robust increase
- NO production [6]: decreased
- block of SIRT [7]: do not block
- Arg2 promoter activity (luciferase) ([8]; TSA 1 μmol/L, 8 hours, versus vehicle): increased
- Arg2 promoter activity, dose dependence ([8]; increasing doses of TSA): dose dependent
